# Results as given in ChEMBL document CHEMBL1201862, “PubChem BioAssay data set” (2004).
# Several values for one entry are separate records, joined by “and”; a condition that tells them apart may be missing. Equal values may be shown once.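 96-well plates; 48 h exposure; 5 concentrations. Endpoints by linear interpolation between flanking doses. Not reached: highest tested concentration assigned. The concentration for 50% growth inhibition is given as GI50.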 Activity calls are given as the source filed them. Cut-off read from the data, not from the text of the source: active = GI50 up to about 1.1 µM and inactive = higher.
# How the values were obtained:
# Experiment in all cases: NCI-60 cell line screen, 48 h
# TK-10 = test system: TK-10
# SR = test system: SR
# OVCAR-4 = test system: OVCAR-4
# HOP-92 = test system: HOP-92
# OVCAR-8 = test system: OVCAR-8
# SN12C = test system: SN12C
# CAKI-1 = test system: CAKI-1
# NCI-H522 = test system: NCI-H522
# OVCAR-5 = test system: OVCAR-5
# UACC-62 = test system: UACC-62
# HOP-62 = test system: HOP-62
# DU-145 = test system: DU-145
# SF-295 = test system: SF-295
# MDA-N = test system: MDA-N
# SW-620 = test system: SW-620
# HCC 2998 = test system: HCC 2998
# NCI/ADR-RES = test system: NCI/ADR-RES
# U-251 = test system: U-251
# NCI-H460 = test system: NCI-H460
# OVCAR-3 = test system: OVCAR-3
SMILES,GI50 (TK-10),GI50 (SR),GI50 (OVCAR-4),GI50 (HOP-92),GI50 (OVCAR-8),GI50 (SN12C),GI50 (CAKI-1),GI50 (NCI-H522),GI50 (OVCAR-5),GI50 (UACC-62),GI50 (HOP-62),GI50 (DU-145),GI50 (SF-295),GI50 (MDA-N),GI50 (SW-620),GI50 (HCC 2998),GI50 (NCI/ADR-RES),GI50 (U-251),GI50 (NCI-H460),GI50 (OVCAR-3)
COc1cc(/C=C/c2nc(N)nnc2C)cc(OC)c1OC,> 43.8 µM (inactive),7.52 µM (inactive),27.9 µM (inactive),16.6 µM (inactive),13 µM (inactive),> 70 µM (inactive),6.56 µM (inactive),2.43 µM (inactive),> 38.5 µM (inactive),6.82 µM (inactive),13 µM (inactive),> 57 µM (inactive),29.2 µM (inactive),35.2 µM (inactive),> 57.8 µM (inactive),9.86 µM (inactive),11.2 µM (inactive),18.4 µM (inactive),13.8 µM (inactive),
O=C1NC(=O)[C@@]2(CC[C@@H](O)C2)c2ccncc21 [SESBANINE],> 100 µM (inactive),> 100 µM (inactive),> 100 µM (inactive),> 100 µM (inactive),> 100 µM (inactive),> 100 µM (inactive),> 100 µM (inactive),> 100 µM (inactive),> 100 µM (inactive),> 100 µM (inactive),,> 100 µM (inactive),> 10 µM (inactive),> 100 µM (inactive),> 100 µM (inactive),> 100 µM (inactive),> 100 µM (inactive),> 100 µM (inactive),> 100 µM (inactive),
Brc1ccc2c(c1)C1=C(CO2)Cc2ccccc2O1,20.4 µM (inactive),36.2 µM (inactive),16.8 µM (inactive),15.6 µM (inactive),20.7 µM (inactive),18.8 µM (inactive),18.2 µM (inactive),19.7 µM (inactive),19.1 µM (inactive),17.2 µM (inactive),15.6 µM (inactive),21.5 µM (inactive),18.1 µM (inactive),13.2 µM (inactive),23.4 µM (inactive),17.2 µM (inactive),23 µM (inactive),19.1 µM (inactive),,16.2 µM (inactive)
COC(=O)c1cc(C)ccc1C1CN=NC12Cc1cccc(C)c1C2=O (configuration not stated),71.6 µM (inactive),26.2 µM (inactive),25.5 µM (inactive),30.5 µM (inactive),33.1 µM (inactive),43.9 µM (inactive),43.3 µM (inactive),21.3 µM (inactive),17.9 µM (inactive),,35.6 µM (inactive),42.5 µM (inactive),36.1 µM (inactive),34.8 µM (inactive),38.4 µM (inactive),37.9 µM (inactive),25.5 µM (inactive),48.9 µM (inactive),26.2 µM (inactive),36.1 µM (inactive)
COc1cc(NCc2ccc3nc(OC)c(OC)nc3c2)cc(OC)c1OC,,89.9 µM (inactive),> 100 µM (inactive),> 100 µM (inactive),> 100 µM (inactive),> 100 µM (inactive),> 100 µM (inactive),86.5 µM (inactive),> 100 µM (inactive),> 100 µM (inactive),> 100 µM (inactive),> 100 µM (inactive),80.5 µM (inactive),> 100 µM (inactive),> 100 µM (inactive),> 100 µM (inactive),42.1 µM (inactive),> 100 µM (inactive),> 100 µM (inactive),> 100 µM (inactive)
CC(=O)/C=C1\Nc2ccc([N+](=O)[O-])cc2N\C1=C/C(C)=O,65.5 µM (inactive),17.9 µM (inactive),44.7 µM (inactive),28.4 µM (inactive),33.5 µM (inactive),28.7 µM (inactive),58.2 µM (inactive),16 µM (inactive),> 100 µM (inactive),26.7 µM (inactive),44.9 µM (inactive),80.5 µM (inactive),42.2 µM (inactive),37.3 µM (inactive),64.6 µM (inactive),,30 µM (inactive),35.3 µM (inactive),21.5 µM (inactive),31.1 µM (inactive)
O=C1C/C(=N/c2ccc(Cl)cc2)C(c2ccccc2)N1c1ccccc1 (configuration not stated),23.9 µM (inactive),5.43 µM (inactive),14.3 µM (inactive),10.3 µM (inactive),,23.9 µM (inactive),1.59 µM (inactive),1.64 µM (inactive),,1.43 µM (inactive),32.1 µM (inactive),6.61 µM (inactive),8.61 µM (inactive),2.5 µM (inactive),10.2 µM (inactive),> 100 µM (inactive),7.06 µM (inactive),32.7 µM (inactive),29 µM (inactive),2.99 µM (inactive)
CC(=O)OC(/C=C/c1ccccc1)P1(=O)N(CC(C)(C)C)[C@@H]2CCCC[C@H]2N1CC(C)(C)C (some centres not stated),,2.92 µM (inactive) and 4.02 µM (inactive),5.35 µM (inactive) and 5.22 µM (inactive),12 µM (inactive),6.56 µM (inactive) and 7.1 µM (inactive),10.4 µM (inactive) and 7.59 µM (inactive),12.8 µM (inactive) and 8.99 µM (inactive),3.76 µM (inactive) and 3.32 µM (inactive),10.7 µM (inactive) and 9.86 µM (inactive),9.2 µM (inactive) and 8.99 µM (inactive),16.2 µM (inactive) and 13.1 µM (inactive),10.4 µM (inactive) and 9.75 µM (inactive),5.87 µM (inactive) and 3.86 µM (inactive),11 µM (inactive) and 7.73 µM (inactive),9.62 µM (inactive) and 5.27 µM (inactive),5 µM (inactive) and 2.77 µM (inactive),5.89 µM (inactive) and 5.11 µM (inactive),8.81 µM (inactive) and 6.38 µM (inactive),6.24 µM (inactive) and 4.84 µM (inactive),
Cc1ccc(/C=C2\Sc3scc(-c4ccccc4)[n+]3C2=O)cc1,19.8 µM (inactive),5 µM (inactive),29 µM (inactive),15.4 µM (inactive),22.4 µM (inactive),21.4 µM (inactive),,3.4 µM (inactive),33.4 µM (inactive),16.7 µM (inactive),26.2 µM (inactive),24.7 µM (inactive),24.6 µM (inactive),18 µM (inactive),20.6 µM (inactive),27.7 µM (inactive),19.5 µM (inactive),16.2 µM (inactive),16.8 µM (inactive),31.4 µM (inactive)
C/C=C\C(CC(=O)O)CN1CCC2=C(C1)C(S(=O)(=O)C(F)(F)F)c1ccccc12 (configuration not stated),,> 100 µM (inactive),> 100 µM (inactive),> 100 µM (inactive),> 100 µM (inactive),,> 100 µM (inactive),> 100 µM (inactive),> 100 µM (inactive),> 100 µM (inactive),> 100 µM (inactive),> 100 µM (inactive),> 100 µM (inactive),> 100 µM (inactive),> 100 µM (inactive),> 100 µM (inactive),> 100 µM (inactive),> 100 µM (inactive),> 100 µM (inactive),> 100 µM (inactive)
Nc1nc(N)c2nc(CNc3ccc(C(=O)NC(CCNC(=O)c4ccccc4C(=O)O)C(=O)O)cc3)cnc2n1 (configuration not stated),> 100 µM (inactive),0.01 µM (active),> 100 µM (inactive),0.0698 µM (active),0.01 µM (active),0.01 µM (active),0.01 µM (active),0.0897 µM (active),> 100 µM (inactive),< 0.0126 µM (active),< 0.0205 µM (active),0.0339 µM (active),0.0718 µM (active),0.00785 µM (active),0.01 µM (active),,< 0.0173 µM (active),< 0.0254 µM (active),0.01 µM (active),31.6 µM (inactive)
O=C(Nc1ccc(-c2cn3ccccc3n2)cc1)c1cc(Br)ccc1O,> 100 µM (inactive),> 100 µM (inactive),> 100 µM (inactive),> 100 µM (inactive),> 100 µM (inactive),> 100 µM (inactive),> 100 µM (inactive),> 100 µM (inactive),> 100 µM (inactive),> 100 µM (inactive),> 100 µM (inactive),> 100 µM (inactive),> 100 µM (inactive),> 100 µM (inactive),> 100 µM (inactive),,> 100 µM (inactive),> 100 µM (inactive),> 100 µM (inactive),> 100 µM (inactive)
CC(C)c1[nH]nc(C(N)=O)c1/N=N/N(C)C,64.7 µM (inactive),17.1 µM (inactive),> 100 µM (inactive),47.4 µM (inactive),> 100 µM (inactive),75.3 µM (inactive),16 µM (inactive),24.4 µM (inactive),,67.9 µM (inactive),> 100 µM (inactive),97.9 µM (inactive),64.7 µM (inactive),> 100 µM (inactive),> 100 µM (inactive),> 100 µM (inactive),> 100 µM (inactive),49.7 µM (inactive),42.5 µM (inactive),> 100 µM (inactive)
Cc1cccc2c(N)c3cccc(C(=O)NCC[N+](C)(C)Cc4c([N+](=O)[O-])ncn4C)c3nc12,56.2 µM (inactive),23 µM (inactive),> 48.2 µM (inactive),40.6 µM (inactive),26.3 µM (inactive),6.93 µM (inactive),2.69 µM (inactive),12.4 µM (inactive),23.6 µM (inactive),33.7 µM (inactive),10.4 µM (inactive),46.8 µM (inactive),25.4 µM (inactive),47.1 µM (inactive),18.9 µM (inactive),6.73 µM (inactive),> 49.9 µM (inactive),29.9 µM (inactive),,41.8 µM (inactive)
